In this data set the test system is rat thymocytes. The format is cell-based. To be noted: 4 h, pH 6.8. As for the experimental part:
As Example 1, an example using thymocytes as lymphoid cells will be described. In this example, rat thymocytes are used. A rat is suited for studies of screening and the like because a rat has the thymus larger than that of a mouse, and a large quantity of thymocytes corresponding to 2000 to 20000 samples is obtained from one rat.
(1) First, extract the thymus surgically from a rat.
(2) The extracted thymus is washed lightly in PBS. This washing may be performed for 1 minute to 5 minutes, and actually for 2 minutes to 3 minutes merely for washing out excess blood or tissues.
(3) The washed thymus is put into a RPMI 1640 medium supplemented with approximately 10% FBS (fetal bovine serum) (having subjected to an inactivation treatment). As the inactivation treatment, a heat treatment at 56° C. is performed for 30 minutes. In the example, the RPMI 1640 medium is 500 ml (ml is a unit symbol for milliliter, the same shall apply hereinafter), and FBS is 55 ml. Thereafter, the thymocytes are kept in the RPMI 1640 medium supplemented with serum to improve the separating ability of the presence or absence of condensation, and improve the measurement accuracy.
(4) Thymocytes are squeezed out of the thymus with tweezers, and passed through mesh to remove unnecessary contaminants and to disassemble the thymocytes. The culture temperature during this treatment is 4° C., and pH is 6.8. The amount of the medium used during cell purification is approximately 20 ml.
(5) The number of cells is counted, and a required number of the cells are seeded on a plate. In the experiment of this example, 5×10^5 cells/well are seeded using a 48-well plate. Also, since measurement is performed for about 20 samples in the experiment of this example, approximately 10 ml of a medium is used. As the medium, a medium of the volume conforming to the container is required. For example, when a 48-well plate is used, approximately 500 μl/well (microliter per well) is required in seeding cells on the plate. When a 96-well plate is used, approximately 50 to 200 μl/well is required in seeding cells on the plate. When one 96-well plate is used, up to approximately 20 ml of a medium is required.
In this example, (I) irradiation with 2 Gy X-ray, (II) administration with a 1 mM (mM is a unit symbol for millimolar, the same shall apply hereinafter) catechin derivative, (III) preliminary administration with a 1 mM catechin derivative and irradiation with 2 Gy X-ray, (IV) administration with 100 μM epigallocatechin (μM is a unit symbol for micromolar, the same shall apply hereinafter), (V) administration with 10 μM vitamin C, or (VI) administration with 100 μM vitamin C was performed. The temperature of the medium in performing this treatment can be 4° C. to room temperature, and is preferably approximately 4° C. so as not to promote the reaction. Gray (Gy) is a unit for absorbed dose of radiation. The absorbed dose when 1 joule of radiation energy is absorbed in 1 kilogram of a substance by radiation is defined as 1 gray.
The samples of (I) to (VI) in Step 2 were incubated for 4 hours. During the incubation, the medium is at a temperature of 37° C., at a CO2 concentration of 5%, under humidification, and at pH 6.8.
After the incubation in Step 3, measurement was performed by using FACSCALIBUR™ (a flow cytometry system). The time required for the measurement is about one hour. […]
FIG. 2(A) to FIG. 2(D), and FIG. 3(A) to FIG. 3(D) are cell size measurement graphs showing measured cell sizes. […]

Structures are written as SMILES. Like-named read-outs stand apart in the source and are kept apart here.

Turning to `O=C1O[C@H]([C@@H](O)CO)C(O)=C1O` [vitamin C], the “another peak at apoptotic cell peak position (cell size)” value is reported as “around 250” (10 μM) and “around 250” (100 μM). Further, the “peak of cell size (cell size measurement graph)” value is reported as “around 400” (10 μM) and “around 400” (100 μM).
Take `Oc1cc(O)c2c(c1)O[C@H](c1cc(O)c(O)c(O)c1)[C@H](O)C2` [epigallocatechin]: the “peak of cell size (cell size measurement graph)” value (100 μM) is “around 300”.

These data come from patent US10031128B2, “Screening method, screening kit and analysis program” (National Institutes for Quantum and Radiological Science …, priority 2012, dated 2018).
